Where a SMILES comes first, the peptide text is derived from it. Where no end group is shown, it is not given here. The star is where a group is joined. X1 = CN(C)c1ccc2c(c1)Oc1cc(N(C)C)ccc1C21OC(=O)c2ccc(C(=O)*)cc21; TMR = fluorophore attached at the N-terminus
Experiments:
Assay type in all cases: cell-based, human
[1] = test system: primary chondrocytes from articular cartilage of patients with OA; assay: MTT cell viability assay to study toxicity; settings: 1-10-60-600 μM, 16 hours, with respect to untreated cells
Experimental: FIG. 2. Cell viability assay to study toxicity. A MTT viability assay was carried out in primary chondrocytes from articular cartilage of patients with OA treated with increasing concentrations of the peptide 8Arg-YSA1 (1-10-60-600 μM, with the octaarginine sequence and the TMR), for 16 hours.
An initial number of cells (5,000-10,000) were seeded in a 96-well culture plate and treated with different concentrations of the peptides. After the treatment, the medium was removed from each well and 10 μL of the MTT reagent was added to 100 μL of fresh medium and incubated at 37° C. for 4 hours. To solubilize the formazan crystals of the MTT reagent, it was incubated with DMSO at room temperature and under stirring for 30 minutes. Absorbance was measured at 570 nm in a plate reader (Nanoquant Infinite M200, TECAN).
Such as it is explained in FIG. 2, a MTT viability assay was carried out on primary chondrocytes from articular cartilage of patients with OA treated with increasing concentrations of the peptide 8Arg-YSA1 (1-10-60-600 μM, with the arginine sequence and the TMR), for 16 hours.

[2] = test system: Cx43 in OA chondrocytes; assay: Western-blot of Cx43 levels; settings: 16 hours, vs untreated (UT)
Source text: (§1) FIG. 4. Decrease in Cx43 levels in chondrocytes from patients with OA treated with peptides YSA1, YTP1 and TUB1. […] The decrease in the levels and activity of Cx43 activates the re-differentiation of the chondrocyte and decreases the accumulation of senescent cells, restoring the adult chondrocyte phenotype and tissue regeneration capacity. […] The results obtained were confirmed by western-blot using α-tubulin as loading control. […] (d) Chondrocytes isolated from donors with osteoarthritis were treated for 16 hours with the YTP1 peptide (150 μM) and the Cx43 levels were analysed by western blot, using α-tubulin as loading control. […] (e) Chondrocytes isolated from donors with OA were treated for 16 hours with the 8Arg-YSA1 peptide (5 μM) and the Cx43 levels were analysed by western blot, using α-tubulin as loading control. […] (g) Chondrocytes isolated from donors with OA were treated for 16 hours with the TUB1 peptide (5 μM) and the Cx43 levels were analysed by western blot, using the intensity of the Ponceau stain as loading control.
The cell pellet isolated from patients with OA and treated with the peptides or untreated were mechanically and chemically lysed using a needle of 29 gauges (BD Medical) in the presence of a cold lysis buffer (50 mM Tris HCl pH 7.5; 50 mM EDTA pH 8, 0.5% NP-40, 1% Triton X-100, 150 mM NaCl). Once the cell extracts were obtained, they were diluted in loading buffer (10% SDS, 200 mM Tris HCl pH 6.8, 50% glycerol, 0.1% Bromophenol Blue, 10% […]). Equal amounts of the cell extracts were separated on a 10% Acrylamide/Bisacrylamide (Acr/Bis) gel with SDS. The proteins were subsequently transferred to a polyvinylidene fluoride membrane (PVDF, Merck) in a Trans-Blot® SD Semi-Dry Transfer Cell (Bio-Rad). It was verified that the transfer was correct by staining the membrane with ATX Ponceau S (Sigma-Aldrich). To block possible nonspecific binding with the membrane, 1-hour incubation was performed at room temperature with a 5% milk solution in a TTBS buffer (20 mM Tris, 150 mM NaCl, 0.05% Tween-20). […]

[3] = test system: Cx43 in OA chondrocytes; assay: Immunofluorescence for the detection of Cx43; settings: 200 μM, against untreated (UT) cells
Source text: as §1
Primary cultures of chondrocytes at a confluence of 70-80% were treated with mimetic peptides of Cx43, and fixed with 2-4% paraformaldehyde (PFA, Sigma-Aldrich) in phosphate buffered saline (PBS, MP Biomedicals) for 10 minutes at room temperature. […]

[4] = test system: gap junctions (GJs) formed by Cx43 in OA chondrocytes; assay: Scrape Loading/Dye Transfer (SL/DT) assay; settings: 150 μM, 16 hours, vs untreated (UT)
Experimental: FIG. 5. Peptides YSA1 and YTP1 decrease intercellular communication through gap junctions (GJs) formed by Cx43 in OA chondrocytes. (a) Scrape Loading/Dye Transfer (SL/DT) assay in which the transfer of Lucifer Yellow (LY) fluorophore between contact chondrocytes through GJs is studied.
Cells were seeded in culture plates to an approximate 90% confluence. After treating the cells with the peptides, the medium was removed and washed twice with PBS. The fluorescent compound Lucifer Yellow (LY, Cell Projects Ltd © Kent) 0.4% in PBS was added and two cuts were made, one with a scalpel and the other with a needle on the cell monolayer. The cells were incubated for 5-7 minutes at 37° C. to allow the transfer of the LY between undamaged cells in contact, after which the LY was removed, and cells were washed with PBS. The cells were fixed with 4% formaldehyde for 10 minutes. The visualization was performed in an inverted fluorescence microscope (Inverted Research Microscope Eclipse Ti, Nikon).
A Scrape Loading/Dye Transfer (SL/DT) test was performed in which the transfer of Lucifer Yellow fluorophore (LY) between contact chondrocytes through GJs was studied.

[5] = 150 μM, α-tubulin loading control

Compound	cell viability (MTT) [1]	Cx43 levels (western blot) ([2]; 5 μM, Ponceau stain loading control)	positivity for Cx43 (immunofluorescence) [3]	Cx43 levels (western blot) [2, 5]	cell coupling through GJs (Lucifer Yellow transfer) [4]
CC(C)C[C@H](NC(=O)[C@H](C)NC(=O)CNC(=O)[C@H](CO)NC(=O)[C@@H](NC(=O)[C@H](C)NC(=O)[C@H](Cc1c[nH]cn1)NC(=O)[C@H](Cc1ccc(O)cc1)NC(=O)[C@@H]1CCCN1C(=O)[C@H](CC(=O)O)NC(=O)[C@H](CO)NC(=O)[C@H](CCCCN)NC(=O)CNC(=O)[C@H](CCCNC(=N)N)NC(=O)[C@H](CCCNC(=N)N)NC(=O)[C@H](CCCNC(=N)N)NC(=O)[C@H](CCCNC(=N)N)NC(=O)[C@H](CCCNC(=N)N)NC(=O)[C@H](CCCNC(=N)N)NC(=O)[C@H](CCCNC(=N)N)NC(=O)[C@H](CCCNC(=N)N)NC(=O)c1ccc2c(c1)C1(OC2=O)c2ccc(N(C)C)cc2Oc2cc(N(C)C)ccc21)[C@@H](C)O)C(=O)N[C@@H](CO)C(=O)N1CCC[C@H]1C(=O)N[C@@H](C)C(=O)N[C@@H](CCCCN)C(=O)N[C@@H](CC(=O)O)C(=O)O [8Arg-YSA1] (X1-RRRRRRRRGKSDPYHATSGALSPAKD-OH)	did not affect cell viability				
Nt-FKGVKDRVKGK-Ct ({TMR}-FKGVKDRVKGK) [TUB1, TMR-labelled]		reduced the Cx43 levels			
Nt-GKSDPYHATSGALSPAKD-Ct ({TMR}-GKSDPYHATSGALSPAKD) [YSA1, residues 242-259 of the C-terminal domain of Cx43; labelled at N-terminus with TMR fluorophore]			decrease in positivity	significantly reduced the levels of Cx43	decrease in cell coupling
Nt-GKSDPYHATTGPLSPAKD-Ct ({TMR}-GKSDPYHATTGPLSPAKD) [YTP1, TMR-labelled]			decrease in positivity	reduced the levels of Cx43	decreased cell coupling

Reference: patent publication US20240287134A1, “PEPTIDES FOR USE AS SENOTHERAPEUTIC AGENTS” (FUNDACIÓN PROFESOR NOVOA SANTOS, priority 2019, published 2024)
